Experimental data from patent US9643980B2, “Benzoxazepin oxazolidinone compounds and methods of use” (Genentech, Inc., priority 2015, dated 2017).
Where two headings read alike, the source gives them in different places.

What was measured:
P-PRAS40 SW48(parental) = experiment: Inhibition of P-PRAS40 in SW48 isogenic cells, PI3Kα wild-type (parental); details: Homo sapiens, SW48, 24 h
Protocol: The three cell lines (WT, E545K, and H1047R) are plated and assayed in parallel. The following day, test compounds are serially diluted in dimethyl sulfoxide (DMSO) and added to cells (final DMSO concentration 0.5%). Cells are then incubated for 24 hours at 37° C. and 5% CO2. […] Cell lysates are added to assay plates pre-coated with antibodies against phosphorylated PRAS40. Phosphorylated PRAS40 in samples are allowed to bind to the capture antibodies overnight at 4° C. The detection antibody (anti-total PRAS40, labeled with an electrochemiluminescent SULFO-TAG) is added to the bound lysate and incubated for 1 hour at room temperature. The MSD Read Buffer is added such that when a voltage is applied to the plate electrodes, the labels bound to the electrode surface emit light. The MSD Sector Instrument measures the intensity of the light, and quantitatively measures the amount of phosphor-PRAS40 in the sample. Percent inhibition of PRAS40 phosphorylation by varying concentrations of test compounds is calculated relative to untreated controls. EC50 values are calculated using the 4 parameter logistic nonlinear regression dose-response model.

PI3Kδ = PI3Kδ (Homo sapiens, UniProt O00329); experiment: PI3K binding assay (lipid kinase reaction, ADP-Glo), PI3K delta; format: biochemical
PI3Kδ, sequence (O00329 whole entry, canonical isoform): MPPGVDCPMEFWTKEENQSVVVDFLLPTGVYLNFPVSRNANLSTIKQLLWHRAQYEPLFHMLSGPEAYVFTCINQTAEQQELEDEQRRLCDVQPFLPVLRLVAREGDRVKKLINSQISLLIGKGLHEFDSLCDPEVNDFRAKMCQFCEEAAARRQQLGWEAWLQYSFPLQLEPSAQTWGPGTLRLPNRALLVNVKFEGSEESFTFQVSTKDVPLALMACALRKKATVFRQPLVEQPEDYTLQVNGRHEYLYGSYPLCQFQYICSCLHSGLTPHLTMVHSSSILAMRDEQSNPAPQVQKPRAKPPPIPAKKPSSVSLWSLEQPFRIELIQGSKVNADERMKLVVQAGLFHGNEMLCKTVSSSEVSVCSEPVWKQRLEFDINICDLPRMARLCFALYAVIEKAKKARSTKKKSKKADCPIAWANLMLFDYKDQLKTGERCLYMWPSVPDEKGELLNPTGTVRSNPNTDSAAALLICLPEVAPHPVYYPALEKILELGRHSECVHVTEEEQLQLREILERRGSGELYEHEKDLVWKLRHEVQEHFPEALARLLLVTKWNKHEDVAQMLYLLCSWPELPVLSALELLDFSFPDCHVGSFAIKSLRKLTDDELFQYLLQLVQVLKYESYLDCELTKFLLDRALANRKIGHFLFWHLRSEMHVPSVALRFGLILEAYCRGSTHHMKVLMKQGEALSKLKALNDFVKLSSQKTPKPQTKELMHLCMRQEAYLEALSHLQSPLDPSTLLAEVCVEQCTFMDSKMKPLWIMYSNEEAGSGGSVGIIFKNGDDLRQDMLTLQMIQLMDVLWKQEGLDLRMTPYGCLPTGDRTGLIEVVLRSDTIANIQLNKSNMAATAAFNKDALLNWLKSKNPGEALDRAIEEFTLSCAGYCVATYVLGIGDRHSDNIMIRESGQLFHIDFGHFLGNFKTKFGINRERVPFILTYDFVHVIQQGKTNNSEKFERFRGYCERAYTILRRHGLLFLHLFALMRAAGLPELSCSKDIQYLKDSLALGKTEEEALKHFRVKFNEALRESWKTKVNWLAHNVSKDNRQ
PI3Kδ, sequence (P27986 whole entry partner, canonical isoform): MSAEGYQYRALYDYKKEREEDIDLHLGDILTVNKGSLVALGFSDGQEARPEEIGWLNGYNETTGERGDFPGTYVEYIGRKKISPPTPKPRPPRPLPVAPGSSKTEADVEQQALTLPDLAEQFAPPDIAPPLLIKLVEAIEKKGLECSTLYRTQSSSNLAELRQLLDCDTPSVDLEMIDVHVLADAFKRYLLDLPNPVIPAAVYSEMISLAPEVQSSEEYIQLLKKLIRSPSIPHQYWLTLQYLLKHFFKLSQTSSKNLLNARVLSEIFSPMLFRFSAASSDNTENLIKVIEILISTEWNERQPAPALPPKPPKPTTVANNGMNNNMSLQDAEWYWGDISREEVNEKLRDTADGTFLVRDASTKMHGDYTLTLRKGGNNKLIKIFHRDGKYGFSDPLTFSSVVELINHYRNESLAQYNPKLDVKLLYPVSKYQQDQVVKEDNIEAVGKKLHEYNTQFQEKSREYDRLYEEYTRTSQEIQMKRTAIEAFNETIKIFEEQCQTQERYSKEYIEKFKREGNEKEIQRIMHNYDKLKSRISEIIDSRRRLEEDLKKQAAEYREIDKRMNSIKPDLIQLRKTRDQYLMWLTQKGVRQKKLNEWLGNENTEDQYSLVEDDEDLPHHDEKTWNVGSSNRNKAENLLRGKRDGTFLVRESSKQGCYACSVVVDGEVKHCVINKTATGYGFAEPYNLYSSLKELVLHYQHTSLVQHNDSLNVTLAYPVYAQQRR
Protocol: (§1) Reactions are carried out using the following conditions for each PI3K isoform as in Table 5.
(§2) All reactions are carried out at room temperature. […] The reaction is started by the addition of 2 μL ATP/MgCl2. The kinase reaction buffer contains 50 mM HEPES, 50 mM NaCl 3 mM MgCl2, 0.01% BSA, 1% DMSO, and enzyme and substrate concentrations as indicated in the above table. The reaction is stopped by the addition of 10 μL ADP-Glo reagent. Plates are read in a Perkin Elmer Envision system using luminescence mode. 10 point dose response curves are generated for each test compound. Ki values for each compound are determined using the Morrison Equation.

PI3Kα = PI3Kα (Homo sapiens, UniProt P42336); experiment: PI3K binding assay (lipid kinase reaction, ADP-Glo), PI3K alpha; format: biochemical
PI3Kα, sequence (P42336 whole entry): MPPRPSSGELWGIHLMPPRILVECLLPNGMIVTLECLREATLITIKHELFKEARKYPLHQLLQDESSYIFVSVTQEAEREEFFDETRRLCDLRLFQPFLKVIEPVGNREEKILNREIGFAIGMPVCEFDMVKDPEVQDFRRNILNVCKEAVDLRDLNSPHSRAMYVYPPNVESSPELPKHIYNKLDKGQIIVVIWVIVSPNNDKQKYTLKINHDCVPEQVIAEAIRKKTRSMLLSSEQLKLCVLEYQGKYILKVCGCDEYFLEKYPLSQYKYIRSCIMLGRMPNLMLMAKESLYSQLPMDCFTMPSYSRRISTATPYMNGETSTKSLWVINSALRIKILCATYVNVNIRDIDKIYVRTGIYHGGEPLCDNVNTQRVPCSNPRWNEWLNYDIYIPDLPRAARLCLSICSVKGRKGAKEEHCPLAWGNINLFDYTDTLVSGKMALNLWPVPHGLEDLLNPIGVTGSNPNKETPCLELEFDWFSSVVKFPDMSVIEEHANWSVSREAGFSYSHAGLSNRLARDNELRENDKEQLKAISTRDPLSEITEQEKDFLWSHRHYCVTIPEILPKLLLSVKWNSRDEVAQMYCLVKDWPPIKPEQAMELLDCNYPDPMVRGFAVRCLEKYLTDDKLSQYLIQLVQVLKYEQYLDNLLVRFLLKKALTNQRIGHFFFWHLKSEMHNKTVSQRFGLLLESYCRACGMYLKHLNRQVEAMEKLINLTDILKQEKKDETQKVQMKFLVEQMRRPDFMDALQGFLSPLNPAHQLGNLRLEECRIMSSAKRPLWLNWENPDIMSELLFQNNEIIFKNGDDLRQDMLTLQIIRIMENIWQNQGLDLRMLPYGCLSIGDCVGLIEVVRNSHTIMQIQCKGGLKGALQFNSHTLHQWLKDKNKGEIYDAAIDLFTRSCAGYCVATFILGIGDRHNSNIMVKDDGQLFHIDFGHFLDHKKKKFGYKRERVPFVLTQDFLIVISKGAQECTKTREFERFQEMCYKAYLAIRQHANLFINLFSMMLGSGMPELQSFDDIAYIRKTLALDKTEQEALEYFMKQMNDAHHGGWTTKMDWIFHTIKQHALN
PI3Kα, sequence (P27986 whole entry partner): as the sequence (P27986 whole entry partner, canonical isoform) above
Protocol: as §1, §2

P-PRAS40 SW48(H1047R) = experiment: Inhibition of P-PRAS40 in SW48 isogenic cells, PI3Kα mutant H1047R; format: cell-based; details: for EC50: Homo sapiens
Protocol: (§3) All statistics were performed using KaleidaGraph Software (version 4.1.3). A Student t-Test was performed using unpaired data with equal variance to compare activity against mutant cells and wild-type cells. P<0.05 is considered to be significant.
(§4) The following assays are intended for determining the cellular potency and mutant selectivity of small molecule PI3Kα inhibitors. […] Mutant selectivity of PI3Kα inhibitors is determined by EC50 potency ratios in the WT vs. E545K cell lines and WT vs. H1047R cell lines.
(§5) The three cell lines (WT, E545K, and H1047R) are plated and assayed in parallel. The following day, test compounds are serially diluted in dimethyl sulfoxide (DMSO) and added to cells (final DMSO concentration 0.5%). […] Cell lysates are added to assay plates pre-coated with antibodies against phosphorylated PRAS40. Phosphorylated PRAS40 in samples are allowed to bind to the capture antibodies overnight at 4° C. The detection antibody (anti-total PRAS40, labeled with an electrochemiluminescent SULFO-TAG) is added to the bound lysate and incubated for 1 hour at room temperature. The MSD Read Buffer is added such that when a voltage is applied to the plate electrodes, the labels bound to the electrode surface emit light. The MSD Sector Instrument measures the intensity of the light, and quantitatively measures the amount of phosphor-PRAS40 in the sample. Percent inhibition of PRAS40 phosphorylation by varying concentrations of test compounds is calculated relative to untreated controls. EC50 values are calculated using the 4 parameter logistic nonlinear regression dose-response model.

P-PRAS40 SW48(E545K) = experiment: Inhibition of P-PRAS40 in SW48 isogenic cells, PI3Kα mutant E545K; format: cell-based; details: for EC50: Homo sapiens
Protocol: as §3, §4, §5

PI3Kβ = PI3Kβ (Homo sapiens, UniProt P42338); experiment: PI3K binding assay (lipid kinase reaction, ADP-Glo), PI3K beta; format: biochemical; details: Table 2A; first value of cell (ADP-Glo, Example 901)
PI3Kβ, sequence (P42338 whole entry): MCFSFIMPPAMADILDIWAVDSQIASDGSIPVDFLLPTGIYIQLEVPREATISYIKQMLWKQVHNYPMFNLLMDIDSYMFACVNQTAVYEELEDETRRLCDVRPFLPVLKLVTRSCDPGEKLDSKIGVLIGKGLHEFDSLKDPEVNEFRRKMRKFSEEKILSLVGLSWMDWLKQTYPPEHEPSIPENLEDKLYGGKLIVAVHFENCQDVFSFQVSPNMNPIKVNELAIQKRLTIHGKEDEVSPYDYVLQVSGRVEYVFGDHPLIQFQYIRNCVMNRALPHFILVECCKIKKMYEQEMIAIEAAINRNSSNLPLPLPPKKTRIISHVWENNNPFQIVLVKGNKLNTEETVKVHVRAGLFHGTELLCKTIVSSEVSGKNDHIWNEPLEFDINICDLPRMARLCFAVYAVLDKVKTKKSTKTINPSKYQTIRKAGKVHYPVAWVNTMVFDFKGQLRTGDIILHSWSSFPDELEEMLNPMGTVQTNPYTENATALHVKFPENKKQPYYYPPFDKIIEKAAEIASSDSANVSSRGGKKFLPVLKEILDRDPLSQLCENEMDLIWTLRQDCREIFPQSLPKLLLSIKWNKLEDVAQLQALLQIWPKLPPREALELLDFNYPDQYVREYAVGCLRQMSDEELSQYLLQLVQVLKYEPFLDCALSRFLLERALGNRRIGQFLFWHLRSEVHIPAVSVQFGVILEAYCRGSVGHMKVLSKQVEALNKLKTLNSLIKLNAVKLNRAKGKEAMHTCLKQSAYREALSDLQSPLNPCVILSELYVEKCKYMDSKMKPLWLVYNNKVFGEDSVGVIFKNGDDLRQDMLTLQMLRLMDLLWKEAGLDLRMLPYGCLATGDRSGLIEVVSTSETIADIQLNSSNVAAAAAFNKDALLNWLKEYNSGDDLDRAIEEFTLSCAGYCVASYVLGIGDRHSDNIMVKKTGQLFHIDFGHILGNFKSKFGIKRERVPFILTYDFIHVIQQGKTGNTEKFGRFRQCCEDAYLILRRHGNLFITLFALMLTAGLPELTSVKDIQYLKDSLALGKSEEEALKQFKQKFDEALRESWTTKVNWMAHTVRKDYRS
PI3Kβ, sequence (P27986 whole entry partner): as the sequence (P27986 whole entry partner, canonical isoform) above
Protocol: as §1, §2

PI3Kγ = PI3Kγ (Homo sapiens, UniProt P48736); experiment: PI3K binding assay (lipid kinase reaction, ADP-Glo), PI3K gamma; format: biochemical; details: Table 2A; first value of cell (ADP-Glo, Example 901)
PI3Kγ, sequence (P48736 whole entry): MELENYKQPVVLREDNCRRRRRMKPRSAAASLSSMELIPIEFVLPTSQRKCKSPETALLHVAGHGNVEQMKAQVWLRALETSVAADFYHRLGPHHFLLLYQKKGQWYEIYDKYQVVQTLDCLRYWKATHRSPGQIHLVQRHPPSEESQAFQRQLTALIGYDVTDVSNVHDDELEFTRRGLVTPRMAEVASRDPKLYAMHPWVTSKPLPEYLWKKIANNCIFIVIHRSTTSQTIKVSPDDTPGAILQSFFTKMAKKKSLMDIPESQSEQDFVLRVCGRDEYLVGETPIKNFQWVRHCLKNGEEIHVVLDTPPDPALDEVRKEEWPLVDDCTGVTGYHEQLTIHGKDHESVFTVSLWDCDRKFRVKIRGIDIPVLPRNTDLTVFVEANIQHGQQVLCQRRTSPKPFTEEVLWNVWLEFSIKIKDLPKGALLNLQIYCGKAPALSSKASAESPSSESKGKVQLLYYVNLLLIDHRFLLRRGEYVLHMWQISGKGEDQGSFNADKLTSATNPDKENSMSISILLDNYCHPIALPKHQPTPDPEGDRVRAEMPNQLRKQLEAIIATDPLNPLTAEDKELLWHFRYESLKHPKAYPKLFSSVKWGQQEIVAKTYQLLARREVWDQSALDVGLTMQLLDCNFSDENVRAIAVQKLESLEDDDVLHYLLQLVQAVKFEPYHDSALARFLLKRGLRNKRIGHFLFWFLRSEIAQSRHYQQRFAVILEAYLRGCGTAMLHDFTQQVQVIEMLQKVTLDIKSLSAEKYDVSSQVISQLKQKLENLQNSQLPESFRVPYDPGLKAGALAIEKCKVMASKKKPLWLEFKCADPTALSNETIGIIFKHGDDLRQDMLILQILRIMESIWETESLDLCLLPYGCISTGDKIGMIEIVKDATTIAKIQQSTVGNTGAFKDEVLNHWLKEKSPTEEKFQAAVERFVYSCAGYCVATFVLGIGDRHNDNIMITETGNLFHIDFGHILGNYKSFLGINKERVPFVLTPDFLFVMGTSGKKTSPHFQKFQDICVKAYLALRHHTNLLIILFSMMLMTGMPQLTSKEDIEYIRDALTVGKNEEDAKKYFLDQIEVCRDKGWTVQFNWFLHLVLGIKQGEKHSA
Protocol: as §1, §2

[1] = read-out: P-PRAS40 SW48(parental) EC50 (μM)
[2] = Table 2B comparator compounds, first value of cell (ADP-Glo)
[3] = Table 2B comparator compounds, first value of cell (ADP-Glo), read-out: PI3Kα Ki
[4] = SW48, Table 3B comparator compounds, 24 hours of compound treatment, read-out: P-PRAS40 SW48(H1047R) EC50
[5] = SW48, Table 3B comparator compounds, 24 hours of compound treatment, read-out: P-PRAS40 SW48(E545K) EC50
[6] = read-out: P-PRAS40 SW48(parental) EC50 (nM)
[7] = Table 2A, first value of cell (ADP-Glo, Example 901)
[8] = Table 2A, first value of cell (ADP-Glo, Example 901), read-out: PI3Kα Ki
[9] = Table 2A, selectivity ratio (fold)
[10] = SW48, Table 3A, 24 hours of compound treatment, geometric mean, read-out: P-PRAS40 SW48(H1047R) EC50
[11] = Table 3A, EC50 potency ratio, p value (Student t-Test) given
[12] = SW48, Table 3A, 24 hours of compound treatment, geometric mean, read-out: P-PRAS40 SW48(E545K) EC50

| Compound | EC50 (P-PRAS40 SW48(parental); [1]) [µM] | Ki (PI3Kδ; [2]) [nM] | EC50 (P-PRAS40 SW48(H1047R); [4]) [µM] | EC50 (P-PRAS40 SW48(E545K); [5]) [µM] | EC50 (P-PRAS40 SW48(parental); [6]) [µM] | Ki (PI3Kδ; [7]) [nM] | Ki (PI3Kα; [8]) [nM] | Selectivity for PI3Kα vs. PI3K-β (PI3Kα; [9]) | Selectivity for PI3Kα vs. PI3Kγ (PI3Kα; [9]) | Selectivity for PI3Kα vs. PI3Kδ (PI3Kα; [9]) | Ki (PI3Kβ) [nM] | Ki (PI3Kγ) [nM] | EC50 (P-PRAS40 SW48(H1047R); [10]) [µM] | Fold Selectivity for SW48(H1047R) vs. SW48(parental) (P-PRAS40 SW48(H1047R); [11]) | EC50 (P-PRAS40 SW48(E545K); [12]) [µM] | Fold Selectivity for SW48(E545K) vs. SW48(parental) (P-PRAS40 SW48(E545K); [11]) | other results |
| --- | --- | --- | --- | --- | --- | --- | --- | --- | --- | --- | --- | --- | --- | --- | --- | --- | --- |
| CC(C)(O)Cn1cc(-c2ccc3c(c2)OCCc2sc(N4C(=O)OCC4(C)C)nc2-3)cn1 [356 (U.S. Pat. No. 8,263,633), reference compound] | 0.31 | 0.92 | 0.0795 | 0.0768 |  |  |  |  |  |  |  |  |  |  |  |  | Selectivity for PI3Kα vs. PI3Kδ (PI3Kα): 1; Ki (PI3Kα; [3]): 0.967 nM; Fold Selectivity for SW48(H1047R) vs. SW48(parental) (P-PRAS40 SW48(H1047R); Table 3B, EC50 potency ratio): 3.9 (p < 0.001); Fold Selectivity for SW48(E545K) vs. SW48(parental) (P-PRAS40 SW48(E545K); Table 3B, EC50 potency ratio): 4.0 (p < 0.001) |
| CC(C)[C@@H]1COC(=O)N1c1cn2c(n1)-c1ccc(O[C@@H](C)C(N)=O)cc1OCC2 [Compound 101, (S)-2-((2-((R)-4-isopropyl-2-oxooxazolidin-3-yl)-5,6-dihydrobenzo[f]imidazo[1,2-d][1,4]oxazepin-9-yl)oxy)propanamide] |  |  |  |  | 0.0682 | 18.7 | 0.803 | 488 | 91 | 23 | 392 | 72.8 | 0.0322 | 2.1 (p < 0.001) | 0.0328 | 2.1 (p < 0.001) |  |
| CC[C@@H]1COC(=O)N1c1cn2c(n1)-c1ccc(O[C@@H](C)C(N)=O)cc1OCC2 [Compound 104, (S)-2-((2-((R)-4-Ethyl-2-oxooxazolidin-3-yl)-5,6-dihydrobenzo[f]imidazo[1,2-d][1,4]oxazepin-9-yl)oxy)propanamide] |  |  |  |  | 0.335 | 50 | 2.69 |  |  |  | 847 | 287 | 0.109 | 2.6 (p = 0.003) | 0.115 | 2.5 (p = 0.003) | Selectivity for PI3Kα vs. PI3K-β (PI3Kα): 315; Selectivity for PI3Kα vs. PI3Kγ (PI3Kα): 107; Selectivity for PI3Kα vs. PI3Kδ (PI3Kα): 19 |
| NC(=O)[C@@H]1CCCN1c1ccc2c(c1)OCCn1cc(N3C(=O)OC[C@H]3C(F)F)nc1-2 [Compound 106, (S)-1-(2-((S)-4-(Difluoromethyl)-2-oxooxazolidin-3-yl)-5,6-dihydrobenzo[f]imidazo[1,2-d][1,4]oxazepin-9-yl)pyrrolidine-2-carboxamide] |  |  |  |  | 0.0055 | 1.82 | 0.053 | 1008 | 384 | 34 | 53.8 | 20.4 | 0.0029 | 1.9 (p < 0.001) | 0.0027 | 2.1 (p < 0.001) |  |
| C[C@H](Oc1ccc2c(c1)OCCn1cc(N3C(=O)OC[C@H]3C(F)F)nc1-2)C(N)=O [Compound 107, (S)-2-((2-((S)-4-(Difluoromethyl)-2-oxooxazolidin-3-yl)-5,6-dihydrobenzo[f]imidazo[1,2-d][1,4]oxazepin-9-yl)oxy)propanamide] |  |  |  |  | 0.0692 | 44.2 | 0.853 | 400 | 159 | 52 | 341 | 136 | 0.0256 | 2.7 (p < 0.001) | 0.0234 | 3.0 (p < 0.001) |  |
| NC(=O)[C@@H]1CCCN1c1ccc2c(c1)OCCn1cc(N3C(=O)OC[C@H]3CF)nc1-2 [Compound 108, (S)-1-(2-((S)-4-(Fluoromethyl)-2-oxooxazolidin-3-yl)-5,6-dihydrobenzo[f]imidazo[1,2-d][1,4]oxazepin-9-yl)pyrrolidine-2-carboxamide] |  |  |  |  | 0.0062 | 1.97 | 0.043 | 1421 | 557 | 46 | 60.8 | 23.9 | 0.0026 | 2.2 (p < 0.001) | 0.0029 | 2.1 (p < 0.001)) |  |
| CC(C)n1ncnc1-c1cn2c(n1)-c1ccc(N3CCC[C@H]3C(N)=O)cc1OCC2 [Compound 375, reference compound] | 0.0016 | 0.354 |  |  |  |  |  |  |  |  |  |  |  |  |  |  | Ki (PI3Kα): 0.016 nM; Fold Selectivity for SW48(H1047R) vs. SW48(parental) (P-PRAS40 SW48(H1047R)): 1.5 (p = 0.20); EC50 (P-PRAS40 SW48(H1047R); SW48, 24 h, read-out: P-PRAS40 SW48(H1047R) EC50 (μM)): 0.001 µM; Fold Selectivity for SW48(E545K) vs. SW48(parental) (P-PRAS40 SW48(E545K)): 1.4 (p = 0.23); EC50 (P-PRAS40 SW48(E545K); SW48, 24 h, read-out: P-PRAS40 SW48(E545K) EC50 (μM)): 0.0011 µM |
| NC(=O)[C@@H]1CCCN1c1ccc2c(c1)OCCn1cc(-c3ncnn3CC(F)(F)F)nc1-2 [Compound 469, reference compound] | 0.001 | 0.422 | 0.0009 | 0.0008 |  |  |  |  |  |  |  |  |  |  |  |  | Ki (PI3Kα; [3]): 0.025 nM; Selectivity for PI3Kα vs. PI3Kδ (PI3Kα; Table 2B comparator compounds, selectivity ratio (fold)): 17; Fold Selectivity for SW48(H1047R) vs. SW48(parental) (P-PRAS40 SW48(H1047R); Table 3B, EC50 potency ratio): 1.6 (p = 0.11); Fold Selectivity for SW48(E545K) vs. SW48(parental) (P-PRAS40 SW48(E545K); Table 3B, EC50 potency ratio): 1.8 (p = 0.04) |
| C[C@H](Oc1ccc2c(c1)OCCn1cc(-c3ncnn3CC(F)(F)F)nc1-2)C(N)=O [Compound 486, reference compound] | 0.0062 | 2.5 | 0.0059 | 0.0055 |  |  |  |  |  |  |  |  |  |  |  |  | Ki (PI3Kα; [3]): 0.186 nM; Fold Selectivity for SW48(H1047R) vs. SW48(parental) (P-PRAS40 SW48(H1047R); Table 3B, EC50 potency ratio): 1.0 (p = 0.74); Fold Selectivity for SW48(E545K) vs. SW48(parental) (P-PRAS40 SW48(E545K); Table 3B, EC50 potency ratio): 1.1 (p = 0.44) |
| C[C@H](Oc1ccc2c(c1)OCCn1cc(-c3ncnn3C)nc1-2)C(N)=O [Compound 540, reference compound] | 0.381 | 24.1 | 0.184 | 0.169 |  |  |  |  |  |  |  |  |  |  |  |  |  |
| CCn1ncnc1-c1cn2c(n1)-c1ccc(O[C@@H](C)C(N)=O)cc1OCC2 [Compound 544, reference compound] | 0.0477 | 11.3 | 0.018 | 0.0159 |  |  |  |  |  |  |  |  |  |  |  |  |  |
